Converted amounts (≈) assume the structure as drawn.
Key:
[1] = Aqueous solubility; assay type: physicochemical; details: McIlvaine buffer with 2.5% DMSO; McIlvaine buffer pH 6.8, 2.5% DMSO, 24 h shaking
Procedure: Assay for Determination of Aqueous Solubility
The aqueous solubility of a compound is determined by comparing the amount dissolved in aqueous buffer (containing 2.5% DMSO) to the amount dissolved in an acetonitrile/water (1/1) solution. Starting from a 10 mM DMSO stock solution, aliquots are diluted with acetonitrile/water (1/1) and Mcllvaine buffer pH 6.8, respectively. After 24 h of shaking, the solutions or suspensions are filtered and analyzed by LC-UV. The amount dissolved in buffer is compared to the amount dissolved in the acetonitrile/water (1/1) solution. Solubility is measured from 0.001 to 0.125 mg/ml at a DMSO concentration of 2.5%. If more than 90% of the compound is dissolved in buffer, the value is marked with “>”.

[2] = target: T1, neutrophil elastase (Homo sapiens, UniProt P08246); test: Neutrophil elastase inhibitory activity in human plasma; assay type: biochemical; parameters: The stimulated blood is centrifuged to generate the neutrophil elastase enriched plasma; from tissue; host or cells: plasma from zymosan-stimulated citrated whole blood of healthy human donors; details: neutrophil elastase enriched human plasma (zymosan-stimulated blood), substrate MeOSuc-Ala-Ala-Pro-Val-AMC
T1 sequence (P08246 30-247 limits assumed): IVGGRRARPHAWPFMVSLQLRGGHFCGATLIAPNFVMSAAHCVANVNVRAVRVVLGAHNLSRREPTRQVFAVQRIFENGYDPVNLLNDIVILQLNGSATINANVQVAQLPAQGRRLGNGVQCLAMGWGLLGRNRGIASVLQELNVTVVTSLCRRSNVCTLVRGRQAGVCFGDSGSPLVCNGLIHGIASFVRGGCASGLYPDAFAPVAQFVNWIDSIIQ
Procedure: Assay for the Determination of Neutrophil Elastase Inhibitory Activity in Human Plasma
Citrated blood from human healthy donors is mixed with zymosan suspension and incubated at room temperature. This leads to the stimulation of neutrophils and the release of neutrophil elastase into the plasma. The stimulated blood is centrifuged to generate the neutrophil elastase enriched plasma.
Preparation of Zymosan Working Solution:
• single 45 ml blood sample is taken into a 50 ml tube containing citrate (3.13%, 5 mL) and the tube is gently inverted 4 times. • Immediately after blood sampling, zymosan working solution (5 mL) is added. • After the addition of zymosan working solution, the tubes are capped, mixed gently and incubated at 22° C. for 15 min on a shaker at 20 rpm. • Make 10 ml aliquots after the incubation time. • Centrifuge the 15 ml tubes at 800 g for […] at 4° C. in a Jouan centrifuge. • Harvest the plasma and make 1-5 ml aliquots. • Store the plasma at −80° C.
Various concentrations of the neutrophil elastase inhibitor are incubated with plasma. Subsequently, the enzyme activity is measured using the fluorogenic substrate MeOSuc-Ala-Ala-Pro-Val-AMC (Bachem Cat. No. 1-1270, substrate concentration: 250 μM, pH 7.5, 25 mM TRIS buffer, 250 mM NaCl) in analogous fashion as described for the human neutrophil assay. A dose response curve is generated to calculate the EC50 of the inhibitor. The analysis of the data is performed by the calculation of the percentage of fluorescence in the presence of the test compound compared to the fluorescence of the vehicle control after subtracting the background fluorescence: An inhibitor of the neutrophil elastase enzyme will give values between 100% control (no inhibition) and 0% control (complete inhibition). The human plasma shift of selected compounds can be calculated using the following equation: Human plasma shift=(EC50 in human plasma assay)/(IC50 in human neutrophil elastase assay) The EC50 values of selected compounds in the human plasma assay described above are listed in Table 14.

[3] = Drug transport across human CACO-2 cells; assay type: in vitro ADME
From the text: Assay for Determination of Drug Transport Across Human CACO-2 Cells
The assay provides information on the potential of a compound to pass the cell membrane, on the extent of oral absorption as well as on whether the compound is actively transported by uptake and/or efflux transporters. For the measurement of permeability across polarized, confluent human cancer colon carcinoma cells 2 (Caco-2) cell monolayers grown on permeable filter supports are used as the in vitro absorption model. Apparent permeability coefficients (PE) of the compounds across the Caco-2 monolayers are measured (pH 7.2, 37° C.) in apical-to-basal (AB) (absorptive) and basal-to-apical (BA) (secretory) transport direction. AB permeability (PEAB) represents drug absorption from the intestine into the blood and BA permeability (PEBA) drug secretion from the blood back into the intestine via both passive permeability as well as active transport mechanisms mediated by efflux and uptake transporters that are expressed on the Caco-2 cells. The compounds are assigned to permeability/absorption classes by comparison of the AB permeabilities with the AB permeabilities of reference compounds with known in vitro permeability and oral absorption in the human. Identical or similar permeabilities in both transport directions indicate passive permeation, vectorial permeability points to additional active transport mechanisms. […] Active transport is concentration-dependently saturable.
Caco-2 cells (1−2*10^5 cells/cm^2 area) are seeded on filter inserts (Costar transwell polycarbonate or PET filters, […] pore size) and cultured (DMEM) for 10 to 25 days. Compounds are dissolved in appropriate solvent (like DMSO, 1-20 mM stock solutions). Stock solutions are diluted with HTP-4 buffer (128.13 mM NaCl, 5.36 mM KCl, 1 mM MgSO4, 1.8 mM CaCl2, 4.17 mM NaHCO3, 1.19 mM Na2HPO4×7H2O, 0.41 mM NaH2PO4×H2O, 15 mM HEPES, 20 mM glucose, pH 7.2) to prepare the transport solutions (typically […] compound, final DMSO <=0.5%). The transport solution (TL) is applied to the apical or basolateral donor side for measuring A-B or B-A permeability (3 filter replicates), respectively. The receiver side contains HTP-4 buffer supplemented with 2% BSA. Samples are collected at the start and end of experiment from the donor and at various time intervals for up to 2 hours also from the receiver side for concentration measurement by LC-MS/MS or scintillation counting. Sampled receiver volumes are is replaced with fresh receiver solution.
The apparent permeability coefficients (PEAB and PEBA) and efflux ratios (PEBA/PEAB) of selected compounds in the Caco-2 drug transport assay described above are listed in Table 17.

[4] = target: T1, neutrophil elastase; test: Human Neutrophil Elastase Assay; assay type: biochemical; parameters: purchased Calbiochem 324681; details: substrate MeOSuc-Ala-Ala-Pro-Val-AMC, pH 7.5, room temperature
Summary of the method: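 Readout: AMC fluorescence (ex 380, em 460 nm) after 60 min room-temperature reaction with 250 nM MeOSuc-AAPV-AMC, following 15 min compound–enzyme preincubation. Buffer: Tris/NaCl pH 7.5, 0.01% BSA.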

solubility at 24 h [1]: 98 µg/mL (≈ 186 µM) | EC50 [2]: 6 nM | Papp A→B at 10 nM ([3]; Caco-2 monolayers, apical-to-basal, pH 7.2, 37° C., read-out: PEAB): 16.4 ×10⁻⁶ cm/s | Papp B→A at 10 nM ([3]; Caco-2 monolayers, basal-to-apical, pH 7.2, 37° C., read-out: PEBA): 80.7 ×10⁻⁶ cm/s | efflux ratio at 10 nM ([3]; pH 7.2, Caco-2, PEBA/PEAB): 4.9 | IC50 [4]: 1.4 nM
Compound: CN(C)CCNC(=O)N1C(=O)N(c2cccc(C(F)(F)F)c2)C2=C(C(=O)CCC2)C1c1ccc(C#N)cc1 (stereo not drawn) [Example 39.8]

Source: patent publication US9115093B2, “Substituted bicyclic dihydropyrimidinones and their use as inhibitors of neutrophil elastase activity” (Boehringer Ingelheim International GmbH, priority 2013, dated 2015)
